According to patent US20030118510A1 (priority 2001, published 2003):

Tests used:
[1] = Intratracheal administration of 750-2 PEG insulin in rats (Example 11, P-2002-003)
Experimental: (§1) The rats were lightly anesthetized using inhaled 3.0-5.0% Isoflurane (Abbott Laboratories) mixed with oxygen for approximately 5 minutes in a plexiglass anesthesia chamber. Administration was accomplished by insertion of a gavage needle (Popper & Sons Inc.; 18×3″ W2-¼ mm ball, New Hyde Park, N.Y. 11040) fitted into a 1 mL syringe into the mouth of the rat down the trachea to just above the main carina. When inserting the gavage needle into the trachea, proper insertion was detected by feeling for the roughness of the cartilage rings under the skin of the throat using the ball of the gavage needle. Doses were administered into the lungs utilizing this method, and followed by removal of the gavage needle.
(§2) Fourteen (N=7/Group) fasted male rats (Hilltop Lab Animals, Scottsdale, Pa. (300-350 g)) with indwelling jugular vein catheters (JVC) were used for this study.
(§3) The in-vivo rat study was conducted essentially as described in Example 8 above.
Absolute bioavailability was calculated as follows: [formula]

blood glucose [2] = test: Blood glucose following intratracheal administration of 750-1 PEG insulin in rats (Example 10, P-2002-001); assay type: in vivo, male rats; conditions: i.t.
Experimental: as §1, §2
The in-vivo intratracheal rat study was conducted essentially as described in Example 8 above.

blood glucose [3] = test: Blood glucose following intratracheal administration of 750-1 PEG insulin in rats (Example 9, P-2001-025); assay type: in vivo, male rats; conditions: i.t.
Experimental: as §1, §2, §3

blood glucose [4] = conditions: i.t.
Experimental: as §1, §2

blood glucose [5] = conditions: rats, 20, 30, 40 μg/animal
blood glucose [6] = test: Blood glucose following intratracheal administration of 2K PEG insulin in rats (Example 12, P-2002-010); assay type: in vivo, male rats; conditions: i.t.
Source text: Fourteen (N=7/Group) fasted male rats (Hilltop Lab Animals, Scottsdale, Pa. (300-350 g)) with indwelling jugular vein catheters (JVC) were used for this study. […] Animal 2-3 was dropped from the study due to a clogged catheter.

Work on “750-2 PEG insulin: 750 PEG insulin composition prepared at molar ratio of PEG reagent (mPEG-SPA-750) to insulin of 3:1” yielded a TMax ([1]; rat, in vivo) of 1.22 h.

For “750-1 PEG insulin: 750 PEG insulin composition prepared at molar ratio of PEG reagent (mPEG-SPA-750) to insulin of 7:1”, the “duration of glucose suppression” value (blood glucose [2]; Example 10, 80 and 160 μg/animal) was greater than 25 h, the “glucose levels at 8 hours, times lower than for unmodified insulin” value (blood glucose [2]; Example 10, 8 hours) was “about 1.5 times” and the “mean serum insulin and mean blood glucose concentrations following intratracheal instillation (FIG. 10, FIG. 11)” value ([1]; i.t., 80 μg/animal) was “Results similar to those in Examples 9 and 10”. For the same substance, the “glucose suppression over the 12 hour period compared with unmodified insulin” value (blood glucose [3]; Example 9) was “significantly increased”, the “onset of action (suppression of glucose)” value (blood glucose [3]; Example 9) was “rapid onset of action comparable to native insulin” and the “time at which glucose levels had not yet returned (duration of glucose suppression)” value (blood glucose [3]; Example 9) was greater than 12 h. For the same substance, the “time to reach maximum glucose lowering” value (blood glucose [3]; Example 9, 100 μg dose) was no less than 6 h, the “time to reach maximum glucose lowering” value (blood glucose [3]; Example 9, 300 μg dose) was no less than 8 h and the “time to reach maximum glucose lowering” value (blood glucose [3]; Example 9, 500 μg dose) was “at least 4 hours”.

In the case of “N^αB1-Methoxypoly(ethylene glycol)5K- propionamido-insulin [5K PEG insulin]”, the “lowering of blood glucose compared with non-pegylated insulin” value (blood glucose [4]; 150 μg/animal vs non-pegylated insulin 40 μg/animal) is reported as “less effective than non-pegylated insulin”, the “lowering of blood glucose when administered to the lung” value (blood glucose [4]; 150 μg/animal, male rats) is reported as “effective in lowering blood glucose” and the “bioactivity (ability to lower blood glucose)” value (blood glucose [5]; i.v.) is reported as “possesses bioactivity”. The “glucose levels following i.v. administration” value (blood glucose [5]) was “dose dependent decrease”.

In the case of “2K PEG insulin: insulin pegylated in non-site specific (random) fashion with linear mPEG-succinimidyl propionate ~2,000 Daltons; mixture of mono and di-pegylated product”, the “glucose levels at time points past about 6 hours compared with non-pegylated insulin” value (blood glucose [6]; 600 μg, 900 μg and 1200 μg per animal) is reported as “suppressed significantly below those of non-pegylated insulin”, the “dose response of decrease in blood glucose concentration” value (blood glucose [6]; 300-1200 μg/animal) is reported as “Good dose response” and the “time point at which maximum glucose suppression was achieved” value (blood glucose [6]; Example 12) is reported as “about 3 hours”.
